Read-outs that look alike come from different tables or passages of the source.
How the values were obtained:
CRL:(WI)BR rats = experiment: Acute oral toxicity in rats; type: in vivo; conditions: rat
Method: (§1) All animal toxicology studies were performed at Toxicological Research Centre (Veszprém, Hungary) using protocols compliant with OECD guidelines and Principles of Good Laboratory Practice. Following is a summary of the studies conducted.
(§2) Acute oral toxicity studies were performed in rats (CRL(WI:)BR) and in mice (CRL: NMRI BR). A control and five dose groups were involved in the rat study at dose levels of 2000 mg/kg, 2600 mg/kg, 3400 mg/kg, 4400 mg/kg and 5700 mg/kg (equal to 1241 mg/kg, 1613 mg/kg, […], 2729 mg/kg and 3535 mg/kg free base, n=5 animals/sex/group).

CRL:NMRI BR mice [1] = experiment: Acute oral toxicity in mice; type: in vivo; conditions: mouse
Method: as §1, §2

CRL:NMRI BR mice [2] = experiment: Acute intraperitoneal toxicity in mice; type: in vivo; conditions: mouse
Method: Acute intraperitoneal toxicity studies were performed in rats (CRL(WI:)BR) and in mice (CRL: NMRI BR).
In the case of the mouse study a control and five dose groups were involved at dose levels of 850 mg/kg, 1100 mg/kg, 1500 mg/kg, 1900 mg/kg and 2600 mg/kg (equal to 527 mg/kg, 682 mg/kg, 930 mg/kg, 1178 mg/kg and 1613 mg/kg free base, n=5 animals/sex/group).

CRL(:WI)BR rats = experiment: 28-day repeated dose oral toxicity study in rats; type: in vivo, rat; conditions: for No observed adverse effect level (NOAEL): rat male and female, 28-day oral
Method: To assess recovery post treatment, an additional 5 males and females were included in both the control and highest dosage groups. Treatment was carried out by gavage once daily. Control animals were treated with physiologic saline in the same way.
Pre-treatment: general condition and behavior activity patterns were observed. Also in a subgroup of 5 male and 5 female animals, hematological and clinical chemistry tests were performed.
During the treatment period and following a two-week recovery period the clinical observations were made daily. At weekly intervals body weight and food consumption were measured.
At the end of the treatment, hematological, clinical chemistry evaluation and gross necropsy with organ weight assessment were conducted. […] In addition, the liver and kidneys and the organs showing macroscopic changes were examined microscopically in the low and middle dose groups, too.

[3] = dog, in vivo
[4] = rat, in vivo
[5] = human, in vivo
[6] = system: healthy young male subjects; experiment: Multiple dose safety study in male healthy volunteers; conditions: human, 50 or 100 mg tid, 10 days

## [O-][n+]1cccc(/C(Cl)=N/OC[C@H](O)CN2CCCCC2)c1 [Compound I, N-[2-hydroxy-3-(1-piperidinyl)-propoxy]-pyridine-1-oxide-3-carboximidoyl chloride]
CRL:(WI)BR rats; female, by base
  Oral LD50 value: 1977 - by base mg/kg
CRL:(WI)BR rats; female, by citrate
  Oral LD50 value: 3188 - by citrate mg/kg
CRL:(WI)BR rats; male, by base
  Oral LD50 value: 1754 (1425-2146) - by base mg/kg
CRL:(WI)BR rats; male, by citrate
  Oral LD50 value: 2828 (2297-3460) - by citrate mg/kg
CRL:NMRI BR mice [1]; female, by base
  Oral LD50 value: >3101 - by base mg/kg
CRL:NMRI BR mice [1]; female, by citrate
  Oral LD50 value: >5000 - by citrate mg/kg
CRL:NMRI BR mice [1]; male, by base
  Oral LD50 value: >3101 - by base mg/kg
CRL:NMRI BR mice [1]; male, by citrate
  Oral LD50 value: >5000 - by citrate mg/kg
CRL:NMRI BR mice [2]; female, by base
  Intraperitoneal LD50 value: 738 - by base mg/kg
CRL:NMRI BR mice [2]; female, by citrate
  Intraperitoneal LD50 value: 1189 - by citrate mg/kg
CRL:NMRI BR mice [2]; male, by base
  Intraperitoneal LD50 value: 839 (674-1023) by base mg/kg
CRL(:WI)BR rats; by base
  No observed adverse effect level (NOAEL): 233 mg/kg/day
CRL(:WI)BR rats; by citrate
  No observed adverse effect level (NOAEL): 375 mg/kg/day
CRL(:WI)BR rats; rat, 375, 750, 1500 mg/kg/day oral, 28 days
  mortality: No deaths occurred
[3]
  major elimination route: eliminated with urine
[3]; iv
  AUC of radioactivity relative to parent compound: about 8 times
[3]; iv, 6.45 mg/kg
  central volume of distribution Vc: 1.50 ± 0.5 L/kg
  first apparent elimination half-life: 19.8 ± 30.6 min
  second apparent elimination half-life: 1.26 ± 0.20 h
[3]; po
  mean AUC of radioactivity relative to parent compound: about 10 times
  peak concentration of radioactivity relative to Compound I: 1.7 times
  radioactivity concentration at two weeks: 0.014±0.004 μgE/ml
  serum radioactivity at 12 h, share of peak: about 15%
[3]; po, 6.45 mg/kg
  absorption half-life: 22.8 min
  oral bioavailability: 77%
  oral bioavailability of total radioactivity: 104%
  peak concentration: 0.94 ± 0.37 µg/mL
  start of absorption after dosing: 15 to 120 min
  time of peak concentration: 1 to 2 h
[4]
  dose eliminated with bile: 20-30 % of dose
  dose remaining in the rats: ~20%
[4]; iv, 25.8 mg/kg
  radioactivity by 3rd post-treatment hour, share of first measured concentration: 20%
[4]; po
  organ radioactivity at 4th hour, share of 45 min values: 20-60%
  penetration through the blood-brain barrier: weak penetration through the blood-brain barrier
[4]; po, 25.8 mg/kg
  increase of radioactivity in organs and tissues: 4-12 fold
  time of first maximal serum concentration of radioactivity: ≤ 1 h
  total exposure of last day (0-24 h AUD) vs first day: more than two times higher
Dog liver cells
  amount of metabolite No. 3: 4.9 % of the total radioactivity
  amount of metabolite No. 4: 3.3 % of the total radioactivity
Dog liver cells; dog, hepatocytes
  clearance: 0.055 mL/h
  t1/2: 12.6 h
[5]
  route of removal: mostly removed unchanged in urine
[5]; po
  Mean t1/2 values: 2.5 to 6.2 h
  Tmax values: 30 to 66 min
  t1/2: 4 h
[5]; po, 50 mg
  AUC(0-t), GeoMean: 0.59 µg·h/mL
  AUC(0-t), Mean: 0.6 µg·h/mL
  AUC, GeoMean: 0.64 µg·h/mL
  AUC, Mean: 0.65 µg·h/mL
  Cmax, GeoMean: 0.16 µg/mL
  Cmax, Mean: 0.17 µg/mL
  MRT, GeoMean: 3.4 h
  MRT, Mean: 3.5 h
  Tmax, GeoMean: 49.2 min
  Tmax, Mean: 54 min
  t½, GeoMean: 3 h
  t½, Mean: 3.1 h
[5]; po, 100 mg
  AUC(0-t), GeoMean: 1.4 µg·h/mL
  AUC(0-t), Mean: 1.4 µg·h/mL
  AUC, GeoMean: 1.6 µg·h/mL
  AUC, Mean: 1.6 µg·h/mL
  Cmax, GeoMean: 0.39 µg/mL
  Cmax, Mean: 0.4 µg/mL
  MRT, GeoMean: 3.7 h
  MRT, Mean: 3.8 h
  Tmax, GeoMean: 60 min
  Tmax, Mean: 66 min
  t½, GeoMean: 3.5 h
  t½, Mean: 3.7 h
[5]; po, 200 mg
  AUC(0-t), GeoMean: 2.7 µg·h/mL
  AUC(0-t), Mean: 2.7 µg·h/mL
  AUC, GeoMean: 2.8 µg·h/mL
  AUC, Mean: 2.8 µg·h/mL
  Cmax, GeoMean: 0.89 µg/mL
  Cmax, Mean: 0.89 µg/mL
  MRT, GeoMean: 3.7 h
  MRT, Mean: 3.8 h
  Tmax, GeoMean: 49.2 min
  Tmax, Mean: 54 min
  t½, GeoMean: 3.1 h
  t½, Mean: 3.1 h
[5]; po, 400 mg
  AUC(0-t), GeoMean: 6.2 µg·h/mL
  AUC(0-t), Mean: 6.3 µg·h/mL
  AUC, GeoMean: 6.3 µg·h/mL
  AUC, Mean: 6.4 µg·h/mL
  Cmax, GeoMean: 1.8 µg/mL
  Cmax, Mean: 1.8 µg/mL
  MRT, GeoMean: 4.5 h
  MRT, Mean: 4.5 h
  Tmax, GeoMean: 49.2 min
  Tmax, Mean: 54 min
  t½, GeoMean: 4 h
  t½, Mean: 4.1 h
[5]; po, 600 mg
  AUC(0-t), GeoMean: 8.9 µg·h/mL
  AUC(0-t), Mean: 9.1 µg·h/mL
  AUC, GeoMean: 9 µg·h/mL
  AUC, Mean: 9.2 µg·h/mL
  Cmax, GeoMean: 2.9 µg/mL
  Cmax, Mean: 3 µg/mL
  MRT, GeoMean: 3.9 h
  MRT, Mean: 4 h
  Tmax, GeoMean: 30 min
  Tmax, Mean: 30 min
  t½, GeoMean: 4.2 h
  t½, Mean: 4.3 h
[5]; po, 800 mg
  AUC(0-t), GeoMean: 12 µg·h/mL
  AUC(0-t), Mean: 12 µg·h/mL
  AUC, GeoMean: 12 µg·h/mL
  AUC, Mean: 12 µg·h/mL
  Cmax, GeoMean: 3.7 µg/mL
  Cmax, Mean: 3.8 µg/mL
  MRT, GeoMean: 4.1 h
  MRT, Mean: 4.1 h
  Tmax, GeoMean: 45.6 min
  Tmax, Mean: 48 min
  t½, GeoMean: 3.4 h
  t½, Mean: 3.5 h
[6]
  serious adverse events or deaths: no serious adverse events or deaths
